# Results reported in publication PMC8861431, “Tissue Pharmacokinetic Properties and Bystander Potential of Hypoxia-Activated Prodrug CP-506 by Agent-Based Modelling” (Frontiers in Pharmacology, 2022).
# “And” between values parts separate entries of the source, which are not always exact repeats. Equal entries are not always repeated. Where two headings read alike, the source gives them in different places.
# Legend:
# HCT-116 WT cell line = assay: Monolayer clonogenic assay; type: cell-based; details: Homo sapiens; HCT-116 WT monolayer; 4 h exposure, <1 ppm O2; read-out: Clonogenic IC50 under anoxia
# Procedure: Cells (4.8 x 10^5 cells) were seeded with 2 ml culture medium into 6-well plates and left to attach for 2 h in a humidified 37°C incubator. Compounds were then prepared in culture medium and added in a 500 µl volume to each well. Plates were returned to a humidified 37°C incubator for the duration of the drug exposure (4 h). Aerobic and anoxic experiments were performed as described above. Plates were then removed from the anaerobic chamber and processed alongside the aerobic cultures. Cells were detached from monolayer by trypsinisation and plated at serial dilutions in 6-well plates. Cells were left to grow in a standard 37°C incubator for 10 days until the controls formed discrete colonies comprised of at least 50 cells. Colonies were visualized by staining with methylene blue (2 g/L in 50% aqueous ethanol) for 30 min. The number of colonies with at least 50 cells was manually counted to determine the plating efficiency. The surviving fraction was determined as the ratio of plating efficiency of treated cells to that of the controls.
# [1] = Diffusion across bare collagen-coated support membrane (without cells); type: in vitro ADME; details: for D M: diffusion coefficient in medium: Table 1
# Procedure: The extravascular transport properties of CP-506 and its formed metabolites were investigated using a custom-designed diffusion apparatus, as described previously ([Hicks et al., 2006]). Briefly, MCL cultures were established by seeding 1 x 10^6 POR-R cells onto collagen-coated Millicell-CM inserts for 3 days. Established MCLs were placed at the interface of the two media-filled compartments of diffusion chambers. Diffusion chambers were placed in a 37°C water bath and gassed with a supraoxic (95% O2, 5% CO2) or anoxic (5% CO2, bal N2) mixture for at least 1 h prior to drug addition. Flux was initiated by the addition of internal standard ([^14C]-urea) and 20 µM CP-506 to the donor compartment. Samples (100 µl) were collected from both the donor and receiver compartments for up to 5 h thereafter. At each time point, a 25 µl aliquot was mixed with emulsifier-safe water-accepting scintillant and assayed for radioactivity using a Perkin Elmer Tricard 2910 TR liquid scintillation analyser. The remaining sample was treated with two volumes of ice-cold acetonitrile (containing 2 µM of the relevant deuterated internal standards) and stored at −80°C until LC-MS/MS analysis. Similar experiments were performed using collagen-coated inserts without MCLs to deduce the chemical stability and diffusion coefficient of CP-506 across the bare support membrane.
# Drug transport in MCLs was modelled as a one-dimensional diffusion with reaction across four consecutive compartments (stirred donor, POR-R MCL, collagen-coated teflon support membrane and stirred receiver) using a custom designed MatLab routine ([Foehrenbacher et al., 2013a]). Model parameters were derived by fitting Eq. 1 and Eq. 2 to the measured concentration-time profile of internal standard [^14C]-urea, CP-506, CP-506H and CP-506M in MCL flux studies. The flux of CP-506 and its metabolites across POR-R MCLs was described using Fick’s second law with a reaction term: ∂CeN/∂t=DN∂^2CeN/∂x^2−klossNCeN− φ( kinNCeN− koutNCiN) (1) ∂CiN/∂t= kmet0(N−1)Ci(N−1)+φ(kinNCeN− koutNCiN)−kmet0NCiN (2) where C is the concentration of the diffusing substance at position x and time t in the extracellular (e) or intracellular (i) compartment, D is the diffusion coefficient through either a bare support membrane (without cells) (D suo ) or extracellular space of a POR-R MCL (D MCL ), k loss is the rate constant for first-order loss (instability) in culture medium, k in and k out are the rate constants for transmembrane transport and k met0 is the rate constant for intracellular metabolism and instability for each compound (N). For metabolites, N-1 represents the previous compound from which the current compound is produced by metabolism. Experimental data was fitted iteratively to derive a tissue diffusion coefficient (DMCL) and metabolic scaling factor (φ i ) to restrain parameter estimates from the cellular PK model (Kin, Kout, Kmet0). The diffusion coefficient for CP-506 across the bare support membrane (Dsup) was determined by solving Eq. 1 with a reaction term only for chemical instability. MCL thicknesses were estimated by fitting the measured [^14C]-urea concentrations to those predicted by Eq. 1 and Eq. 2 without instability or metabolism by using the known diffusion coefficient (DMCL) for [^14C]-urea in HCT-116 MCLs ([Wilson et al., 2004]). The diffusion coefficient (DMCL) for CP-506 in POR-R MCLs was then fitted from the measured concentrations in the donor and receiver compartments of supraoxic experiments by assuming one-directional diffusion in the extracellular space. The metabolic scaling factor (φ i ) was then fitted from the measured concentrations in the donor and receiver compartment of anoxic experiments by fixing parameter estimates to the diffusion coefficient (DMCL) from supraoxic experiments.
# [2] = system: spheroid co-cultures of POR-R activator and PORko-G target cells; assay: Spheroid growth delay assay; type: cell-based; details: Homo sapiens, 4 h, 4 h exposure, anoxic, read-out: IC50 for inhibition of spheroid growth
# Procedure: Spheroid cultures were established by seeding 3 x 10^3 cells with 100 µl medium into ultra-low attachment, round bottom 96-well plates (Corning Inc, Corning, NY). Plates were briefly centrifuged (200 g, 5 min) to facilitate cell aggregation and grown in a standard incubator (37°C, 21% O2, 5% CO2) for 4 days before experiments. The culture medium was then aspirated, and the established spheroids taken into a H2/Pd-catalyst anaerobic chamber. Spheroids were washed three times with anoxia pre-equilibrated medium and left to settle for 1 h in a humidified 37°C incubator. Spheroids were removed from the anaerobic chamber after a 4 h drug exposure and washed three times with fresh culture medium. The growth of representative spheroids was monitored for 10 days using a published method of image analysis for volume determination ([Mao et al., 2018]). The remainder were enzymatically dissociated and plated at serial dilutions in 6-well plates containing 2 µM puromycin or 1 mg/ml geneticin for positive selection of POR-R and PORko-G cells, respectively. Colonies were visualized after 10 days of drug-free proliferation by staining with methylene blue (2 g/L in 50% aqueous ethanol) for 30 min. The number of colonies with at least 50 cells was manually counted to determine the plating efficiency. The surviving fraction was determined as the ratio of the plating efficiency of treated cells to that of the controls.
# [3] = system: POR-overexpressing HCT-116 cells (POR-R) monolayer; assay: Cellular uptake studies / cellular PK model; type: in vitro ADME, human; details: aerobic 21% O2, Co range 0.3–30 µM
# [4] = ref Van Der Wiel et al., 2021; cited from earlier work
# [5] = system: POR-overexpressing HCT-116 cells (POR-R) monolayer; details: cited from earlier work
# [6] = assumed equivalent to CP-506 for the active metabolites
# [7] = Table 1 footnote d: assumed equivalent to measured metabolites or derived from published estimates for PR-104A metabolites, ref Foehrenbacher et al., 2013a, Hong et al., 2018b
# [8] = Table S3, fixed to fitted values for downstream metabolites of PR-104 ('metabolite 2'), ref (2,3)
smiles,measurement,setting,value
"CCN1CCN(C(=O)c2cc(N(CCBr)CCOS(C)(=O)=O)c(S(C)(=O)=O)cc2[N+](=O)[O-])CC1 [CP-506, 2-[(2-bromoethyl)-5-[(4-ethyl-1-piperazinyl)carbonyl]-2-(methylsulfonyl)-4-nitroanilino]ethyl methanesulfonate]",IC50,HCT-116 WT cell line,7.4 ± 0.5 µM
same,D M: diffusion coefficient in medium,[1]; Dsup fitted for bare support membranes under supraoxic conditions,1.32 × 10^−6 ± 0.19 × 10^−6 cm^2s^−1
same,Dsup: diffusion coefficient across bare support membranes,"[1]; anoxic (5% CO2, bal N2)",0.717 ± 0.01 x 10^−6 cm^2 s^−1 and 0.717 ± 0.01 (3) x 10^−6 cm^2 s^−1
same,Dsup: diffusion coefficient across bare support membranes,"[1]; supraoxic (95% O2, 5% CO2)",1.32 ± 0.19 x 10^−6 cm^2 s^−1 and 1.32 ± 0.19 (2) ^b x 10^−6 cm^2 s^−1
same,IC50,[2]; 0% activator cells,> 40 µM
same,IC50,[2]; 10% activator cells,13.6 µM
same,IC50,[2]; 50% activator cells,5.6 µM
same,IC50,[2]; 100% activator cells,2.4 µM
same,Steady-state Ci/Ce ratio (cell uptake),[3],50 fold
same,O2 concentration above which prodrug activation and cytotoxicity are completely inhibited,[4],above 1 µM O2
"CCN1CCN(C(=O)c2cc(N(CCBr)CCOS(C)(=O)=O)c(S(C)(=O)=O)cc2NO)CC1 [CP-506H, 2-((2-bromoethyl)(5-(4-ethylpiperazine-1-carbonyl)-4-(hydroxyamino)-2-(methylsulfonyl)phenyl)amino)ethyl methanesulfonate]",D M: diffusion coefficient in medium,[1]; [6],1.32 × 10^−6 ± 0.19 × 10^−6 cm^2s^−1
"CCN1CCN(C(=O)c2cc(N(CCBr)CCOS(C)(=O)=O)c(S(C)(=O)=O)cc2N)CC1 [CP-506M, 2-((4-amino-5-(4-ethylpiperazine-1-carbonyl)-2-(methylsulfonyl)phenyl)(2-bromoethyl)amino)ethyl methanesulfonate]",D M: diffusion coefficient in medium,[1]; [6],1.32 × 10^−6 ± 0.19 × 10^−6 cm^2s^−1
"CCN1CCN(C(=O)c2cc(N(CCCl)CCCl)c(S(C)(=O)=O)cc2N)CC1 [CP-506M-Cl2, (2-Amino-5-(bis(2-chloroethyl)amino)-4-(methylsulfonyl)phenyl)(4-ethylpiperazin-1-yl)methanone]",D M: diffusion coefficient in medium,[1]; [6],1.32 × 10^−6 ± 0.19 × 10^−6 cm^2s^−1
same,k in: rate constant for transfer from the extracellular to intracellular volume,[5]; [7],0.9 ^d min^−1
same,k out: rate constant for transfer from the intracellular to extracellular volume,[5]; [7],0.3 ^d min^−1
same,T1/2: time required to reduce the concentration to half its initial value,[5]; [8],6.6 min
same,kin: rate of transfer from the extracellular to the intracellular compartment,[5]; [8],0.9 min⁻¹
same,kout: rate of transfer from the intracellular to the extracellular compartment,[5]; [8],0.3 min⁻¹
